One test has as its target T1, CCKB receptor (Mus musculus, UniProt P56481).
T1 construct: The cortex was dissected, weighed and homogenised in 40ml ice-cold buffer; tissue Charles River (supplier of the CD1 mice); host or cells: cerebral cortex membranes of male CD1 mice
T1 sequence (P56481 1-453): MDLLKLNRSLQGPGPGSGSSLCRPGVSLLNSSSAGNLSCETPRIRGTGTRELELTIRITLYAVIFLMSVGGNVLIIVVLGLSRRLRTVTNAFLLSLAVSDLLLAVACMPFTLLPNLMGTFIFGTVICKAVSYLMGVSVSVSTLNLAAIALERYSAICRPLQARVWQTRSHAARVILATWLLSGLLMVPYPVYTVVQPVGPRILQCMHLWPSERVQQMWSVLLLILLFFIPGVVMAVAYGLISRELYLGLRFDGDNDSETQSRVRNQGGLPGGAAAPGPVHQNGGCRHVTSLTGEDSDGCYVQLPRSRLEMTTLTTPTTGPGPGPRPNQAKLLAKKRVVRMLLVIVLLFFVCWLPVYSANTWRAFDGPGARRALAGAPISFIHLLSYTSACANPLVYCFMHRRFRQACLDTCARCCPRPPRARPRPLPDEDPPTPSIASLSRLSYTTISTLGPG
In words: CCKB receptor radioligand binding assay in mouse cortical membranes ([125I]-CCK8S). The note with it: [125I]-CCK8S 200 pM, 150 min at 21±3°; for Ki: read-out: CCKB pKi (converted). The essentials: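 Cortical membranes from male CD1 mice in HEPES buffer (pH 7.2; NaCl, KCl, MgCl2, EDTA, bacitracin) were incubated with competing compound and [125I]-CCK8S (added as a 200 pM solution) for 150 min at 21±3°. Non-specific binding was defined with L-365,260. Bound tracer was separated by GF/B filtration and counted by gamma counting.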

The target in another test is T2, gastrin (Rattus norvegicus, UniProt P30553).
T2 construct: The stomach was lowered into a jacketed organ bath containing 40 ml of buffered solution; from tissue; host or cells: isolated perfused whole stomach of immature rats (ca. 21 days old)
T2 sequence (P30553 1-452): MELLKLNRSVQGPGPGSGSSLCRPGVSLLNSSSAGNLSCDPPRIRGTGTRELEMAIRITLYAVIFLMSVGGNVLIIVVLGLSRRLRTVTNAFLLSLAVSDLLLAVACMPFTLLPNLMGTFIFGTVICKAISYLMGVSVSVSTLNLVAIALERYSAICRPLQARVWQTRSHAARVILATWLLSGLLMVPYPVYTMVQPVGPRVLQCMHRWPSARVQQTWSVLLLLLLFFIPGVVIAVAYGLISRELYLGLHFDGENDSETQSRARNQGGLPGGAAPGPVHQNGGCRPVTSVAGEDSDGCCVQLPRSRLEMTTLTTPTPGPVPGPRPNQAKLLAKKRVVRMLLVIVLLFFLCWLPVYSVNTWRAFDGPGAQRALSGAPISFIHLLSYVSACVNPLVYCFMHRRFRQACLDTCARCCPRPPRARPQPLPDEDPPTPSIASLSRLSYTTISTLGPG
In words: gastrin antagonist activity in an immature rat stomach assay (pentagastrin-stimulated acid secretion). The note with it: cumulative pentagastrin dose-response curves after 60 min with drug; for Kb: read-out: Gastrin pKB (converted). Here is the method: The compounds of the examples were also tested for gastrin antagonist activity in an immature rat stomach assay. The procedure was as follows:
The oesophagus of immature rats (33-50 g, ca. 21 days old) was ligated at the level of the cardiac sphincter and the duodenal sphincter was cannulated. The stomach was excised and flushed with ca. 1 ml of unbuffered physiological saline solution. The fundus was punctured and cannulated. A further 4-5 ml of unbuffered solution was flushed through the stomach to ensure the preparation was not leaking. The stomach was lowered into a jacketed organ bath containing 40 ml of buffered solution containing 3×10^-8 M 5-methylfurmethide, maintained at 37° and gassed vigorously with 95% O2 /5% CO2. The stomach was continuously perfused at a rate of 1 ml min^-1 with unbuffered solution gassed with 100% O2 with the perfusate passing over an internally referenced pH-electrode fixed 12 cm above the stomach.
After 120 min of stabilisation the drugs were added directly to the serosal solution in the organ bath and after a further 60 min cumulative pentagastrin dose-response curves were started. Changes in acid secretion were monitored and the curves analysed according to Black et.al., Br. J. Pharmacol., 1985, 86, 581.

For `CN(CC12CC3CC(CC(C3)C1)C2)C(=O)c1cc2ccccc2cc1C(=O)N1CCC[C@@H]1C(=O)NCC(=O)O` [Example 14, 2-(2R-carboxymethylaminocarbonylpyrrolidino-carbonyl)-3-(1-adamantanemethyl(N-methyl)aminocarbonyl)-naphthalene], the Ki at CCKB receptor was 1000 nM. In addition, the Kb at gastrin was 316 nM.
With `O=C(O)c1cc(NC(=O)[C@H](Cc2ccc(I)cc2)NC(=O)c2cc3cc[nH]c3cc2C(=O)NCC23CC4CC(CC(C4)C2)C3)cc(C(=O)O)c1` [Example 32, 5-(1S-(3,5-dicarboxyphenylaminocarbonyl)-2-(4-iodophenyl)ethylaminocarbonyl)-6-(1-adamantanemethylaminocarbonyl)-indole], the Ki on CCKB receptor is 3.98 nM. Moreover, on gastrin, the Kb is 0.794 nM.
In the same order, the values of `COC(=O)c1cc(NC(=O)[C@H](Cc2ccccc2)NC(=O)c2cc3cc[nH]c3cc2C(=O)NCC23CC4CC(CC(C4)C2)C3)cc(C(=O)OC)c1` [Example 35, 5-(1S-(3,5-dimethoxycarbonylphenylaminocarbonyl)-2-phenylethylaminocarbonyl)-6-(1-adamantanemethylaminocarbonyl)-indole] are 63.1 nM and 2 nM.
As for `O=C(O)c1cc(NC(=O)[C@H](Cc2ccccc2)NC(=O)c2cc3c(cc2C(=O)NCC24CC5CC(CC(C5)C2)C4)[nH]c2ccccc23)cc(C(=O)O)c1` [Example 51, 3-(1S-(3,5-dicarboxyphenylaminocarbonyl)-2-phenylethylaminocarbonyl)-2-(1-adamantanemethylaminocarbonyl)-carbazole], the Ki on CCKB receptor is 10 nM. Besides, on gastrin, the Kb was 25.1 nM.
For the compound `O=C(O)c1cc(NC(=O)[C@H](Cc2ccccc2F)NC(=O)c2cc3[nH]cnc3cc2C(=O)NCC23CC4CC(CC(C4)C2)C3)cc(C(=O)O)c1` [Example 63, 5-(1S-(3,5-dicarboxyphenylaminocarbonyl)-2-(2-fluorophenyl)ethylaminocarbonyl)-6-(1-adamantanemethylaminocarbonyl)-benzimidazole], on CCKB receptor, the “CCKB pKi” value is 8.4. In addition, the “Gastrin pKB” value on gastrin amounted to 9.1.
As for `CC(=O)NS(=O)(=O)c1cccc(NC(=O)[C@H](Cc2ccccc2)NC(=O)c2cc3[nH]cnc3cc2C(=O)NCC23CC4CC(CC(C4)C2)C3)c1` [Example 137, 5-(1S-(3-acetylaminosulphonylphenylaminocarbonyl)-2-phenylethylaminocarbonyl)-6-(1-adamantanemethylaminocarbonyl)-benzimidazole], the Ki on CCKB receptor is 20 nM. Besides, at gastrin, the Kb is 15.8 nM.
Consider `O=C(NS(=O)(=O)c1cccc(NC(=O)[C@H](Cc2ccccc2)NC(=O)c2cc3[nH]cnc3cc2C(=O)NCC23CC4CC(CC(C4)C2)C3)c1)c1ccccc1` [Example 139, 5-(1S-(3-benzoylaminosulphonylphenylaminocarbonyl)-2-phenylethylaminocarbonyl)-6-(1-adamantanemethylaminocarbonyl)-benzimidazole], for which the Ki on CCKB receptor was 15.8 nM. Further, the Kb at gastrin was 79.4 nM.

The record behind these values is patent US5795907A, “Gastin and CCK receptor ligands” (James Black Foundation Limited, priority 1994, dated 1998).
